Source: publication PMC10648406, “Pulicaria incisa (Lam.) DC. as a Potential Source of Antioxidant, Antibacterial, and Anti-Enzymatic Bioactive Molecules: Phytochemical Constituents, In Vitro and In Silico Pharmacological Analysis” (Molecules, 2023)
In brackets after ≈: the same amount, converted by molar mass.

How the values were obtained:
A. baumannii = assay: MIC, resazurin microtitre method; assay type: cell-based; settings: Acinetobacter baumannii, 24 h, 35 °C, read-out: Minimal inhibitory concentration
Protocol: (§1) To ensure sterility, the extracts and DMSO underwent ultrafiltration before their use in the study. The minimum inhibitory concentration (MIC) of both aqueous and methanolic extracts was determined using a modified version of the resazurin method developed by Sarker and Nahar. A resazurin solution was prepared by dissolving 270 mg of resazurin in 40 mL of sterilized deionized water. In 96-well microtiter plates, the first row received 100 μL of samples in DMSO (1:10 v/v), while all other wells received 50 μL of Luria–Bertani broth or normal sterile solution. Serial dilutions of the extracts were performed in descending concentrations. To each well, 10 μL of the resazurin indicator solution was added. […] The plates were sealed with parafilm to prevent dehydration. A column of the plate contained the broad-spectrum antibiotic tetracycline, which was previously suspended in DMSO and served as a positive control. The negative control consisted of Luria–Bertani broth containing resazurin and bacteria without any samples. The plates were incubated at 37 °C (35 °C for A. baumannii) for 24 h. Visual observation was used to assess any color changes. If the solution changed from dark purple to pink or colorless, it was recorded as a positive result. The MIC value was determined as the lowest concentration of extracts that could prevent the color change from dark purple to pink.

L. monocytogenes = assay: MIC, resazurin microtitre method; assay type: cell-based; settings: Listeria monocytogenes, 24 h, 37 °C, read-out: Minimal inhibitory concentration
Protocol: as §1

S. aureus = assay: MIC, resazurin microtitre method; assay type: cell-based; settings: Staphylococcus aureus, 24 h, read-out: Minimal inhibitory concentration
Protocol: as §1

P. aeruginosa = assay: MIC, resazurin microtitre method; assay type: cell-based; settings: Pseudomonas aeruginosa, 24 h, 37 °C, read-out: Minimal inhibitory concentration
Protocol: as §1

E. coli = assay: MIC, resazurin microtitre method; assay type: cell-based; settings: Escherichia coli, 24 h, read-out: Minimal inhibitory concentration
Protocol: as §1

DPPH assay = settings: 45 min, 515 nm
Protocol: The antiradical activity of the stable 1,1-diphenyl-2-picrylhydrazyl radical (DPPH) was measured using the protocol of Xiang and coworkers with slight modifications. […] To produce final concentrations ranging from 31.25 to 1000 µg/mL, aliquots of extracts were dissolved in methanol. In a straight-sided cuvette, an aliquot of methanol solution containing different concentrations of either methanolic or aqueous extracts was added to a DPPH solution (60 μM) to a final volume of 1 mL. As a control, an identical quantity of DPPH solution was applied to the cuvette, and methanol alone was used as the blank. After 45 min, the absorbance at 515 nm was measured with a Multiskan GO spectrophotometer (Thermo Fisher Scientific, Vantaa, Finland).
The standard was 6-hydroxy 2,5,7,8-tetramethylchroman-2-carboxylic acid (Trolox, Sigma-Aldrich, Milan, Italy).

Row | DPPH (IC50) (DPPH assay) | Structure (SMILES) | MIC (A. baumannii) | MIC (L. monocytogenes) | MIC (S. aureus) | MIC (P. aeruginosa) | MIC (E. coli)
1 |  | CN(C)[C@@H]1C(O)=C(C(N)=O)C(=O)[C@@]2(O)C(O)=C3C(=O)c4c(O)cccc4[C@@](C)(O)[C@H]3C[C@@H]12 [Tetracycline] | 25 ± 2 µg/mL (≈ 56.3 µM) | 32 ± 1 µg/mL (≈ 72 µM) | 28 ± 1 µg/mL (≈ 63 µM) | 28 ± 1 µg/mL (≈ 63 µM) | 25 ± 2 µg/mL (≈ 56.3 µM)
2 | 3.65 ± 0.01 µg/mL | Cc1c(C)c2c(c(C)c1O)CCC(C)(C(=O)O)O2 (stereo not drawn) [Trolox, 6-hydroxy 2,5,7,8-tetramethylchroman-2-carboxylic acid] |  |  |  |  | 
